Measured values: patent publication US11046681B2, “Substituted piperidines for the treatment of cancer” (LES LABORATOIRES SERVIER, priority 2016, dated 2021)

What was measured:
[1] = target: His-His-USP7 (aa208-560, [C315A]) (Homo sapiens (Human), UniProt Q93009, C315A); assay: Evaluation of the inhibition of USP7 by Fluorescence Intensity (FLINT) readings; type: biochemical; settings: 0.25 nM USP7, 60 minutes at 30° C. preincubation, 500 nM Ubiquitin-Rhodamine-110 substrate, 50% reduction in kinetic rate
Chain of His-His-USP7 (aa208-560, [C315A]) (Q93009 208-560 C315A): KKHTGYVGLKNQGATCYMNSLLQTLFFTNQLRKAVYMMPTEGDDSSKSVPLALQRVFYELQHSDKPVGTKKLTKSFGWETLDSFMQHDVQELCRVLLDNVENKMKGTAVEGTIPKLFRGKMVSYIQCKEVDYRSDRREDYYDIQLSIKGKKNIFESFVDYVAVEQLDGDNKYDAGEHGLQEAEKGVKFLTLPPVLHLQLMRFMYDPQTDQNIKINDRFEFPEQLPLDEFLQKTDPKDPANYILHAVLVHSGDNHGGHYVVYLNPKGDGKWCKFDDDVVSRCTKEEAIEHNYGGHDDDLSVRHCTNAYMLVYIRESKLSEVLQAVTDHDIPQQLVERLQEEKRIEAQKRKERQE
Description: USP7 activity was measured using Rhodamine-110 c-terminal labelled Ubiquitin as a substrate (Viva Biosciences). Incubation with USP7 results in the release of Rhodamine-110 leading to an increase in fluorescence which can be used in the continuous measurement of USP7 activity.
The USP7 reactions were performed in a 50 μL volume, in 384 well black solid low binding plates (Corning #3575). The reaction buffer consisted of 100 mM Bicine pH 8.0, 0.01% TritonX100, 1 mM TCEP, and 10% DMSO.
0.25 nM His-His-USP7 (aa208-560, [C315A]) was incubated with compound (final concentration 10% DMSO) for 60 minutes at 30° C. The reaction was then initiated by the addition of 500 nM Ubiquitin-Rhodamine-110 substrate and the plate read every 3 minutes for 21 minutes to measure the release of Rhodamine-110. Fluorescence Intensity (FLINT) readings were measured using a […] Neo plate reader (Ex.485 nm, Em.535 nm).
The inhibition of increasing doses of compound was expressed as a percentage reduction in kinetic rate compared to the kinetic rates established between ‘DMSO only’ and ‘total inhibition’ controls (no USP7). The inhibitory concentrations that gave a 50% reduction in kinetic rate (IC50) were determined, from 11-point dose response curves, in XL-Fit using a 4-Parameter Logistic Model (Sigmoidal Dose-Response Model).

[2] = test system: MM1S multiple myeloma tumour cell line; assay: In vitro cytotoxicity, Microculture Tetrazolium Assay (MTT) on MM1S cells; type: cell-based; settings: Homo sapiens, MM1.S, exposed for 96 hours, cell viability by MTT
Description: The cytotoxicity studies were carried out on the MM1S multiple myeloma tumour cell line. The cells are distributed onto microplates and exposed to the test compounds for 96 hours. The cell viability is then quantified by a colorimetric assay, the Microculture Tetrazolium Assay (Cancer Res., 1987, 47, 939-942).

IC50 [1] [µM] | Compound | IC50 [2] [µM]
0.0196 | O=C([C@@H]1CCNC[C@H]1c1ccccc1)N1CCC(O)(Cn2cnc3c(cnn3-c3ccc4c(c3)OCCO4)c2=O)CC1 [EXAMPLE 165, 1-(2,3-dihydro-1,4-benzodioxin-6-yl)-5-[[4-hydroxy-1-[(3R,4R)-3-phenylpiperidine-4-carbonyl]-4-piperidyl]methyl]pyrazolo[3,4-d]pyrimidin-4-one] | 0.3
0.0499 | COc1ccc(-n2ccc3c(=O)n(CC4(O)CCN(C(=O)[C@@H]5CCN(C(=O)OC(C)(C)C)C[C@H]5c5ccccc5)CC4)cnc32)cc1 [EXAMPLE 40, tert-butyl (3R,4R)-4-[4-hydroxy-4-[[7-(4-methoxyphenyl)-4-oxo-pyrrolo[2,3-d]pyrimidin-3-yl]methyl]piperidine-1-carbonyl]-3-phenyl-piperidine-1-carboxylate] | 0.0315
0.0316 | O=C([C@@H]1CCNC[C@H]1c1ccccc1)N1CCC(O)(Cn2cnc3c(ccn3-c3ccccc3)c2=O)CC1 [EXAMPLE 101, 3-[[4-hydroxy-1-[(3R,4R)-3-phenylpiperidine-4-carbonyl]-4-piperidyl]methyl]-7-phenyl-pyrrolo[2,3-d]pyrimidin-4-one] | 0.272
0.0287 | COc1ccc(-n2ccc3c(=O)n(CC4(O)CCN(C(=O)[C@@H]5CCNC[C@H]5c5ccccc5)CC4)cnc32)cc1 [EXAMPLE 135, 3-[[4-hydroxy-1-[(3R,4R)-3-phenylpiperidine-4-carbonyl]-4-piperidyl]methyl]-7-(4-methoxyphenyl)pyrrolo[2,3-d]pyrimidin-4-one] | 0.135
0.0377 | O=C([C@@H]1CCNC[C@H]1c1ccccc1)N1CCC(O)(Cn2cnc3c(ccn3-c3ccc(F)cc3)c2=O)CC1 [EXAMPLE 130, 7-(4-fluorophenyl)-3-[[4-hydroxy-1-[(3R,4R)-3-phenylpiperidine-4-carbonyl]-4-piperidyl]methyl]pyrrolo[2,3-d]pyrimidin-4-one] | 
0.0961 | COc1ccc(-n2ccc3c(=O)n(CC4(O)CCN(C(=O)[C@@H]5CCN(C(C)=O)C[C@H]5c5ccccc5)CC4)cnc32)cc1 [EXAMPLE 178, 3-[[1-[(3R,4R)-1-acetyl-3-phenyl-piperidine-4-carbonyl]-4-hydroxy-4-piperidyl]methyl]-7-(4-methoxyphenyl)pyrrolo[2,3-d]pyrimidin-4-one] | 
0.0486 | CN1CC[C@@H](C(=O)N2CCC(O)(Cn3cnc4c(ccn4-c4ccc(Cl)cc4)c3=O)CC2)[C@H](c2ccccc2)C1 [EXAMPLE 153, 7-(4-chlorophenyl)-3-[[4-hydroxy-1-[(3R,4R)-1-methyl-3-phenyl-piperidine-4-carbonyl]-4-piperidyl]methyl]pyrrolo[2,3-d]pyrimidin-4-one] | 0.0747
0.0885 | CC(C)(C)CC(=O)N1CC[C@@H](C(=O)N2CCC(O)(Cn3cnc4c(ccn4-c4ccccc4)c3=O)CC2)[C@H](c2ccccc2)C1 [EXAMPLE 187, 3-[[1-[(3R,4R)-1-(3,3-dimethylbutanoyl)-3-phenyl-piperidine-4-carbonyl]-4-hydroxy-4-piperidyl]methyl]-7-phenyl-pyrrolo[2,3-d]pyrimidin-4-one] | 
0.0524 | COc1ccc(-n2ccc3c(=O)n(CC4(O)CCN(C(=O)[C@@H]5CCN(C)C[C@H]5c5ccccc5)CC4)cnc32)cc1 [EXAMPLE 151, 3-[[4-hydroxy-1-[(3R,4R)-1-methyl-3-phenyl-piperidine-4-carbonyl]-4-piperidyl]methyl]-7-(4-methoxyphenyl)pyrrolo[2,3-d]pyrimidin-4-one] | 
